One may read the LogD as the decadic logarithm of the distribution of all forms, ionised or not, between an organic phase and buffer at a given pH.

Molecules are shown by their SMILES.

This is an account of results in PMC3683333, “^11C-LY2428703, a positron emission tomographic radioligand for the metabotropic glutamate receptor 1, is unsuitable for imaging in monkey and human brains” (EJNMMI Research, 2013).

Data set [1] in a line: Arterial plasma analysis after injection, human. It counts as in vivo. The procedure: Plasma analyses were performed on a reverse-phase chromatography C18 column (Novapak, 4 μm, 100 × 8 mm, Waters Corp. Milford, MA, USA) using Radial-Pak® compression module RCM-100 with a sentry pre-column. Human plasma analyses were performed with a mobile phase of […], at a flow rate of 2.5 mL/min; nonhuman primate plasma samples were analyzed with a mobile phase of MeOH/H2O/Et3N, 72.5:27.5:0.1 by volume, at a flow rate of 1.5 mL/min. To compare the outcome from both systems, elution volume is reported rather than retention time.
Arterial plasma was analyzed as previously described. Briefly, after ^11C-LY2428703 injection into either human or nonhuman primate, the input function was determined by periodically drawing anticoagulated blood samples. Blood aliquots were removed so that the γ-counter could provide information necessary for vascular correction. The remaining blood was then centrifuged, and plasma (450 μL) aliquots were removed and placed in acetonitriles (720 μL/ea) spiked with carrier LY2428703. The samples were mixed well, 100 μL water aliquots were added, and then, the sample was further mixed. The samples were counted in the γ-counter and centrifuged at 10,000×g for 1 min. The clear supernatant liquids were injected onto the radio-HPLC as described above. The precipitates were then counted for radioactivity to allow the calculation of the efficiency of recovery of radioactivity in the acetonitrile. Human plasma samples were separated with a mobile phase of higher polarity ([…]) to ensure that the parent radiochromatographic peak comprised a single radiochemical species.
PET images were acquired using the GE Advance scanner (GE Healthcare, Milwaukee, WI, USA) for 120 min. An 8-min ^68Ge transmission scan was obtained before the injection of the radiotracer for attenuation correction. The mean injected activity was 328 ± 12 MBq. The specific activity at the time of injection was 87.2 ± 34.7 GBq/μmol, which corresponded to 5.5 ± 2.3 nmol (0.082 ± 0.037 nmol/kg) of carrier. Blood samples (1 mL each) were drawn from the radial artery at 15-s intervals until 150 s, followed by 3-mL samples at 3, 4, 6, 8, 10, 15, 20, 30, 40, and 50 min, and 4.5 mL at 60, 75, 90, and 120 min. The unchanged parent fraction in plasma and fP of ^11C-LY2428703 were determined as described above.

Data set [2] concerns mGluR1. In words: Brain PET at baseline and after mGluR1 blockade, monkey. It counts as in vivo, rhesus monkeys (Macaca mulatta). The procedure: (§1) Four male rhesus monkeys (Macaca mulatta, 11.7 ± 2.9 kg) were imaged in 13 PET scans. Seven scans were performed at baseline, three scans were performed after receptor blocking to calculate nondisplaceable uptake (VND), and three scans were performed after blockade of the efflux transporters at the blood–brain barrier. Receptors were blocked by mixing ^11C-LY2428703 with an mGluR1 antagonist - either nonradioactive LY2428703 (2.0 mg/kg) or LY2332084 (0.5 mg/kg) - in the same syringe. Efflux transporters were blocked in two scans by injecting DCPQ, which selectively blocks the efflux transporter ABCB1 (P-gp), and in one scan by injecting elacridar, which blocks both ABCB1 (P-gp) and ABCG2 (BCRP).
(§2) PET images were acquired using either the high-resolution research tomograph (HRRT) or the FOCUS 220 scanner (Siemens/CPS, Knoxville, TN, USA) for 120 min in 33 frames, with frame durations ranging from 30 s to 5 min, and correcting for attenuation and scatter. About 2 h before the PET scan, anesthesia was initiated with ketamine (10 mg/kg IM) and then maintained with 1% to 3% isoflurane. Electrocardiograph, body temperature, heart rate, and respiration rate were measured throughout the experiment. At baseline, the injected activity was 210 ± 51 MBq (specific activity at time of injection 43.2 ± 25.6 GBq/μmol, mass dose 6.9 ± 4.7 nmol or 0.62 ± 0.35 nmol/kg). Tissue time-activity curves were obtained from semi-automatic regions of interest encompassing the whole cerebellum and the rest of the brain. Brain uptake was expressed as standardized uptake value (SUV). Arterial input function was obtained for eight scans: four at baseline, two after blocking with nonradioactive LY2428703, one after blocking with DCPQ, and one after blocking with elacridar. Blood samples (0.5 mL each) were drawn through a port connected to the femoral artery at 15-s intervals until 2 min, followed by 1-mL samples at 3, 5, 10, 30, 60, 90, and 120 min. The plasma time-activity curve was corrected for the fraction of unchanged radioligand following the procedure detailed above.
(§3) Volumes of distribution (VT) were obtained by nonlinear compartmental analysis. Goodness-of-fit by nonlinear least squares analysis was evaluated using the Akaike Information Criterion (AIC) and Model Selection Criterion (MSC). The most appropriate model is that with the smallest AIC and the largest MSC score. Goodness-of-fit by the compartment models was compared with F statistics. A value of P < 0.05 was considered significant for F statistics. The identifiability of kinetic variables was calculated as standard error obtained from the diagonal of the covariance matrix and expressed as a percentage of the rate constant.

Data set [3] has as its system ABCB1 (P-gp) and ABCG2 (BCRP). Put plainly: Brain PET after blockade of efflux transporters, monkey. The data set is classed as in vivo, rhesus monkeys (Macaca mulatta). The procedure: as §1, §2, §3
The conditions of data set [4]: room temperature, octanol; cited from earlier work.
Data set [5] deals with mGluR1 (Homo sapiens, UniProt Q13255). In words: Saturation binding assay with [^3H]LY456066, human cerebellar membranes. Set-up: P2 membrane fractions were prepared from the cerebella of; from tissue; host or cells: human cerebellum, P2 membrane fraction. Conditions: humans. The protocol:
P2 membrane fractions were prepared from the cerebella of male Sprague–Dawley rats (n = 3), male rhesus monkeys (n = 3), and female humans (n = 4). […] Nonspecific binding was defined by heterologous displacement of 1 μM LY480084 (mGlu1 antagonist) in select wells. Plates were incubated on ice for 75 min and membranes harvested on 0.3% polyethylenimine pretreated Wallac filter mats using a Tomtec Harvester MachII (Tomtec, Hamden, CT, USA). Dissociation constant (KD) and receptor density (Bmax) values were obtained in GraphPad Prism using standard nonlinear one-site binding equations. Data are presented as mean ± SEM (n = 3 to 4); one-way analysis of variance followed by Tukey's post hoc test.

Chain of mGluR1 (Homo sapiens, UniProt Q13255) (Q13255 19-1194): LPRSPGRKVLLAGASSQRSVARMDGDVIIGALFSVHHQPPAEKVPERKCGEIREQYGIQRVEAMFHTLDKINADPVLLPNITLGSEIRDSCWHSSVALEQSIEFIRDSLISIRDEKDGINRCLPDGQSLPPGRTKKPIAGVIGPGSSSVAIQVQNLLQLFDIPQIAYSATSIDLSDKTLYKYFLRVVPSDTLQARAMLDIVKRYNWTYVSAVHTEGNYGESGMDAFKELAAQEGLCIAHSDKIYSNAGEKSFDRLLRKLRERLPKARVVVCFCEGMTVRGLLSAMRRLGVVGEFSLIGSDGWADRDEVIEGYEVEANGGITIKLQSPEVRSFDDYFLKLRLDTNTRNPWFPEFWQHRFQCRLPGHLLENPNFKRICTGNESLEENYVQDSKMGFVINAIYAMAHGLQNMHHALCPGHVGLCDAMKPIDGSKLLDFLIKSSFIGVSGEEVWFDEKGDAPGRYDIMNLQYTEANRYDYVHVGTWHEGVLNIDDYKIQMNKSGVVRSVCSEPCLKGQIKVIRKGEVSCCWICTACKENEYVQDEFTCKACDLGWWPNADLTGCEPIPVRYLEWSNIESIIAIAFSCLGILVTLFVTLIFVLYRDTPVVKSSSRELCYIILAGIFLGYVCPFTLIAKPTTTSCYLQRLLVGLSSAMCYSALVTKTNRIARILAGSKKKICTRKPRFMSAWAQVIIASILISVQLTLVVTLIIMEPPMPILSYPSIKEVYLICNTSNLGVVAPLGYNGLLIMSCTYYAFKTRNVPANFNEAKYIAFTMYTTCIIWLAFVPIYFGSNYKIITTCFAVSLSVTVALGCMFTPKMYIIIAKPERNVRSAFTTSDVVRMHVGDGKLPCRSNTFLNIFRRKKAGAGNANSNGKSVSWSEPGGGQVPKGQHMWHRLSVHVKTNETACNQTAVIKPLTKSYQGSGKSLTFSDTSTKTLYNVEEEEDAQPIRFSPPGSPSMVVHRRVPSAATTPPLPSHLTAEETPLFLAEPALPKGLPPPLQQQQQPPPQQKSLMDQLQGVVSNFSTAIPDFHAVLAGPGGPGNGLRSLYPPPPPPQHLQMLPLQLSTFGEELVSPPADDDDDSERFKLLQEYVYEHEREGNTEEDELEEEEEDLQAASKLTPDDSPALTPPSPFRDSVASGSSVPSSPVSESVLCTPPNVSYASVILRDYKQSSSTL

For the compound `Cc1c(-c2ccc(O[11CH3])cc2)nsc1NC(=O)[C@@H]1C[C@H]1C` [^11C-LY2428703], in data set [1], the peak plasma concentration is on record as 33 ± 5 SUV and the “time of peak plasma concentration” value was found to be 1.5 ± 0 min. The radiometabolites in plasma result in data set [1] (at 2 h) is “approximately 1%”. For the same compound, the “parent radioligand as share of total blood radioactivity” value in data set [1] (entire 2-h imaging period) was ~99%. Moreover, in the data set with mGluR1 [2] (after mGluR1 blockade), the “peak uptake in cerebellum” value stood at 4.9 ± 0.8 SUV and the “peak uptake in forebrain” value was 3.6 ± 1.9 SUV. Besides, in the data set with mGluR1 [2] (baseline), the “peak uptake in cerebellum” value was found to be 3.1 ± 1.4 SUV, the “peak uptake in cerebellum higher than in forebrain” value is reported as “about 50%”, the “peak uptake in forebrain” value worked out at 2.2 ± 0.8 SUV and the “time at which cerebellar uptake decreased to 50% of peak” value is “about 20 min”. Moreover, in the data set on mGluR1 [2] (baseline), the “time of peak uptake in cerebellum” value is “approximately 2 min” and the “time of peak uptake in forebrain” value is “approximately 2 min”. Moreover, the “mean VT” value in the data set with mGluR1 [2] (baseline scans, two-tissue compartment model) is 3.5 ± 1.0 mL/cm^3. Besides, in the data set on mGluR1 [2] (calculated from mGluR1 blocking studies), the VND was 4.4 ± 2.9 mL/cm^3. The compound also gave a VT in cerebellum in data set [3] (DCPQ experiment: baseline) of 4.4 mL/cm^3. The VT in cerebellum in data set [3] (after DCPQ blockade (P-gp)) worked out at 4.2 mL/cm^3. In addition, the VT in cerebellum in data set [3] (after elacridar blockade (P-gp and BCRP)) was 0.8 mL/cm^3. In data set [3] (based on pharmacological blockade), the “substrate for P-gp or BCRP” value is “not a substrate”. The compound further returned a VT in cerebellum in data set [3] (elacridar experiment: baseline) of 2.0 mL/cm^3. For the same compound, the LogD in data set [4] is recorded as 4.02. Also, on mGluR1 [5], the “fp × Bmax/KD (=VS), effective BP” value is reported as 0.016.
